Data reported in the NIST ThermoML archive (doi:10.1021/je030147g).

Assays:
[1] = refractive index (Na D-line) (dimensionless); xn = mol fraction of the nth substance listed; conditions: 101.33 kPa, Liquid
[2] = xn = mol fraction of the nth substance listed; conditions: 101.33 kPa, Liquid

CCCCN(CCCC)CCCC [tributylamine] + CCCCCCCCCCCCCC
Conditions	mass density, 298.15 K [kg/m3]	mass density, 303.15 K [kg/m3]	mass density, 308.15 K [kg/m3]	refractive index, 298.15 K	refractive index, 303.15 K	refractive index, 308.15 K	speed of sound, 298.15 K [m/s]	viscosity, 298.15 K [mPa·s]	viscosity, 303.15 K [mPa·s]	viscosity, 308.15 K [mPa·s]
[1], x1 = 0.1081	–	–	–	1.4283	1.4258	1.4234	–	–	–	–
[1], x1 = 0.2058	–	–	–	1.4282	1.4257	1.4234	–	–	–	–
[1], x1 = 0.2802	–	–	–	1.428	1.4256	1.4232	–	–	–	–
[1], x1 = 0.4095	–	–	–	1.4278	1.4254	1.4231	–	–	–	–
[1], x1 = 0.5112	–	–	–	1.4278	1.4254	1.423	–	–	–	–
[1], x1 = 0.6101	–	–	–	1.4278	1.4254	1.423	–	–	–	–
[1], x1 = 0.7051	–	–	–	1.4279	1.4255	1.4231	–	–	–	–
[1], x1 = 0.7999	–	–	–	1.4281	1.4256	1.4231	–	–	–	–
[1], x1 = 0.8953	–	–	–	1.428	1.4255	1.4231	–	–	–	–
[1], x1 = 1	–	–	–	1.4276	1.4255	1.4228	–	–	–	–
[2], x1 = 0.1081	761.9	758.1	754.4	–	–	–	1303	1.93	1.75	1.57
[2], x1 = 0.2058	762.9	759.2	755.5	–	–	–	1292	1.842	1.671	1.499
[2], x1 = 0.2802	763.8	760	756.3	–	–	–	1287	1.774	1.612	1.45
[2], x1 = 0.4095	765.3	761.5	757.8	–	–	–	1283	1.668	1.518	1.368
[2], x1 = 0.5112	766.6	762.9	759.1	–	–	–	1279	1.585	1.448	1.31
[2], x1 = 0.6101	767.9	764.2	760.5	–	–	–	1275	1.511	1.386	1.261
[2], x1 = 0.7051	769.3	765.5	761.9	–	–	–	1272	1.441	1.329	1.216
[2], x1 = 0.7999	770.9	767	763.1	–	–	–	1270	1.375	1.274	1.173
[2], x1 = 0.8953	772.4	768.4	764.4	–	–	–	1267	1.309	1.222	1.135
[2], x1 = 1	773.9	769.2	765.7	–	–	–	1262	1.239	1.124	1.103
